Measurements from patent publication US6518262B1, “22R-hydroxycholesta-8, 14-diene derivatives for the inhibition of meiosis” (Akzo Nobel N.V., priority 1999, dated 2003).

Test system: denuded oocytes (DO)
Experiment: Oocyte assay, agonistic testing, denuded oocytes (DO assay)
Type: cell-based, mice (B6D2-F1, strain C57BL×DBA)
Details: compound 5 μM, hypoxanthine medium, 22 hours culture, control value in brackets
Source text: Oocytes arrested in meiosis contain diffused chromosomes which are surrounded by an intact nuclear envelope known as the germinal vesicle (GV). Upon reinitiation of meiosis by the midcycle gonadotropin surge, the chromosomes recondense and the GV breaks down (GVBD). In vivo, the oocyte is exposed to hypoxanthine (HX), which maintains the oocyte arrested in the meiotic prophase. This meiotic arrest can be mimicked in vitro by addition of hypoxanthine to the culture medium. The agonistic activity of meiosis activating substances is measured as the ability to overcome the hypoxanthine maintained meiotic arrest in denuded oocytes (DO) or cumulus enclosed oocytes (CEO), i.e. as the ability to induce meiotic resumption in vitro.
Ovaries are obtained from immature female mice (B6D2-F1, strain C57BL×DBA). At the age of 19, 20 or 21 days the mice are injected subcutaneously with a single dose of 20 IU follicle stimulating hormone (Humegon, Organon, The Netherlands) in saline.
Forty-eight hours after follicle stimulating hormone injection mice are killed by cervical dislocation. The ovaries are removed, freed of extraneous tissue and placed in a multidish containing 0.5 ml preparation medium at 37° C. L-15 Leibovitz medium (Gibco, pH 7.3±0.1) supplemented with bovine serum albumin (3 mg·ml^−1), L-glutamine (0.23 mM), sodium pyruvate (2 mM) and hypoxanthine (4 mM) is used as preparation medium. The antral follicles of the ovaries are punctured under a dissecting microscope using two 27-gauge needles attached to two 1 ml syringes. Cumulus enclosed oocytes (CEO) of uniform size are selected with a mouth-controlled pipette and rinsed in 0.5 ml fresh preparation medium. About 20 CEO are obtained from one ovary.
Oocytes freed from cumulus cells, i.e. denuded oocytes (DO), are obtained by gently flushing CEO through a fine-bore mouth-controlled pipette. DO were collected in fresh MEM alpha medium, containing bovine serum albumin (3 mg·ml^−1), L-glutamine (0.23 mM), sodium pyruvate (2 mM) and hypoxanthine (4 mM), and washed twice before transfer to the test medium.
The oocyte assay is performed in 3 blocks, each block represents the ovaries of one mouse (randomized block design). […] At t=0 the number of oocytes with intact germinal vesicles (GV) or germinal vesicle break-down (GVBD) is counted under an inverted microscope with differential interference contrast equipment. […] At the end of the culture period the number of oocytes with GV or GVBD per group is counted. For statistical analysis the percentage germinal vesicle breakdown is calculated for each group in one block. These percentages are subjected to arcsin transformation, and differences between control and test compounds are analyzed by an ANOVA test for a randomized block design. […]

Structure (SMILES) | % GVBD DO assay exp.
CC(C)CC[C@@H](O)[C@@H](C)[C@H]1CC=C2C3=C(CC[C@@]21C)[C@@]1(C)CC[C@H](O)C(C)(C)[C@@H]1CC3 [Example 1, (3β,5α,20S,22R)-4,4-Dimethylcholesta-8,14-diene-3,22-diol] | 0(0) %
CC(C)=CC[C@@H](O)[C@@H](C)[C@H]1CC=C2C3=C(CC[C@@]21C)[C@@]1(C)CC[C@H](O)C(C)(C)[C@@H]1CC3 [Example 2, (3β,5α,20S,22R)-4,4-Dimethylcholesta-8,14,24-triene-3,22-diol] | 3(3) %
